These results are taken from patent US20050238580A1 (priority 2002, published 2005).

Series [1] can be described thus: Gastrointestinal tolerability of the oral intake of 4-galactosyl-xylose in adult human volunteers. Type of series: in vivo.
The target of the next series is T1, intestinal lactase (Homo sapiens, UniProt P09848).
T1 construct: from tissue; host or cells: small-intestinal mucous membrane of living adult human volunteers (in vivo)
In words: Excretion of xylose in urine of adult human volunteers after oral 4-galactosyl-xylose, colorimetric titration with fluoroglucinol. The format is in vivo. On the procedure:
The methodology consists of the oral administration of an aqueous solution of 4-galactosyl-xylose to humans after at least 8 hours of fasting. The amount of xylose present in the urine excreted is evaluated as of then, after a specific period of time. The methodology can be carried out likewise by evaluating the presence of xylose in blood evaluating it in plasma, or blood serum, prepared from a blood sample extracted after a period of time, after the intake of the disaccharide. The titration of xylose can be done by means of calorimetric analysis based on the reaction with fluoroglucinol and using as a target, either the basal urine or else the basal plasma or the basal blood serum, depending on the methodology that is used. Once the intake of 4-galactosyl-xylose has taken place, it is hydrolyzed by the intestinal lactase, in such a way that the products of this enzymatic reaction, galactose and xylose, are absorbed into the blood through the intestinal mucous membrane.
4-galactosyl-xylose is an in vivo substrate of human intestinal lactase. This has been shown in the first place by orally administering 1 g of 4-galactosyl-xylose dissolved in 50 ml of water to an adult volunteer (individual 1) who had fasted for 8 hours and with a normal tolerance to milk and milk products, in other words, with lactose tolerance. A basal urine sample was taken from this individual immediately before the intake of 4-galactosyl-xylose and urine was again collected after the intake thereof every hour for 8 hours, each sample showing the total urine excreted in each period of time. Xylose was titrated in all the samples by means of calorimetric analysis based on the reaction with fluoroglucinol and using basal urine as the target. […] The results of this experiment appear compiled in FIG. 3, where the amount of xylose evaluated in each sample is represented (white circles) and the amount of xylose that is being accumulated in urine over time is represented (black circles), calculated by adding to the amount of xylose evaluated in each sample, the amounts evaluated in all the preceding samples. In […] one can see: 1) That xylose is excreted in the urine of this individual after oral administration of 4-galactosyl-xylose; 2) That the excretion of xylose in urine was maximum after 2 hours and it was progressively accumulated in the urine after administration of this compound.
Excretion of xylose in urine by adult human volunteers with lactose tolerance varies according to the amount of the 4-galactosyl-xylose intake. This has been shown by administering 0.25 g, 0.5 g and 3 g of 4-galactosyl-xylose to an adult volunteer with lactose tolerance (individual 1, Example 4) and to an adult volunteer with lactose tolerance (individual 2, Example 5) under the same conditions as those described in Example 1 and likewise titrating xylose calorimetrically with fluoroglucinol in the urine excreted by both volunteers over time after the intake of the disaccharide. A free period of around one week was left between each intake of 4-galactosyl-xylose by the same individual. […] The results of these experiments are compiled in FIG. 4 panel A (for individual 1 and Example 4) and in FIG. 4 panel B (for individual 2 and Example 5), wherein the amount of xylose accumulated in urine after the intake of 4-galactosyl-xylose for each administered dose is represented. FIG. 4A includes the data obtained with the same individual after an intake of 1 g of the disaccharide coming from FIG. 3 so that a comparison can be made with the rest of the administered doses. In these FIGS. 4A and 4B one can see: 1) That the excretion of xylose in urine over time after the intake of 4-galactosyl-xylose increased as the amount administered to individual 1 (FIG. 4A), as well as to individual 2 (FIG. 4B) increased; That a dose of 0.25 g 4-galactosyl-xylose permitted easy detection of the presence of xylose in urine in either of these two individuals. […]

T1 sequence (P09848 869-1927): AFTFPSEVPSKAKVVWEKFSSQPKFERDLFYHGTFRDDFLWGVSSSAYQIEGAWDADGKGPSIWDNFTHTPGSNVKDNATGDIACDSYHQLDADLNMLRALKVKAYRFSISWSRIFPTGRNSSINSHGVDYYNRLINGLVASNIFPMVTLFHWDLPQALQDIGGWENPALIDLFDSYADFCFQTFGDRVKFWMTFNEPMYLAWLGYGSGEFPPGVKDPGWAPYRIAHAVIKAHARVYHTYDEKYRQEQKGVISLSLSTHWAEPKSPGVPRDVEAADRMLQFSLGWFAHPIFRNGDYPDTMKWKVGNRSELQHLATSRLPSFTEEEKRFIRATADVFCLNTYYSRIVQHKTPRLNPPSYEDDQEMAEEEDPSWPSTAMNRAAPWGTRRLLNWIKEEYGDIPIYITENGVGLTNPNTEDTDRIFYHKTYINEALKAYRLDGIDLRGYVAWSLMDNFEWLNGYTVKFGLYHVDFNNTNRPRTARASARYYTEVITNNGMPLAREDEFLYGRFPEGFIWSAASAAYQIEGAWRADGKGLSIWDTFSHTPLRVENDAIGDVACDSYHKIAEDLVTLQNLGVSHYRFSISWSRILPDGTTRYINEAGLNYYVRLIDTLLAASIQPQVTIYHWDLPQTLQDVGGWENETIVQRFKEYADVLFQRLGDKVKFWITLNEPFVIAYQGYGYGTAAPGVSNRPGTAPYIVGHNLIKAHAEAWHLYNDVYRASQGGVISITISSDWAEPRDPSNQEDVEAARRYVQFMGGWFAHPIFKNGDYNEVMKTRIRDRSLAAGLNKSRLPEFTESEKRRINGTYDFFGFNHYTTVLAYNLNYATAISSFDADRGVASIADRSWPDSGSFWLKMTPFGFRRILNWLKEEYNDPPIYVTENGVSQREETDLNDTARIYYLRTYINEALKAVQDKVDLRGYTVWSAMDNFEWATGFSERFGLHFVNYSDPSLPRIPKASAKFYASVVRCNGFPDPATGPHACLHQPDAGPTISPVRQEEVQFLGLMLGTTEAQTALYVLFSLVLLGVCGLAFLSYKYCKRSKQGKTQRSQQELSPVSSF

With `OCC1O[C@@H](O[C@@H]2COC(O)C(O)[C@H]2O)C(O)[C@@H](O)[C@H]1O` (some centres unmarked), the “gastrointestinal discomfort or disorders” value was “did not cause any gastrointestinal discomfort or disorder” in series [1] (8 adult volunteers with lactose tolerance, 0.25 g oral); “did not cause any gastrointestinal discomfort or disorders” in series [1] (individual 1 with lactose tolerance, 1 g oral); “did not result in any gastrointestinal discomfort or disorder” in series [1] (individual 12 with lactose intolerance and two individuals with lactose tolerance, 3 g oral); “did not cause any gastrointestinal discomfort or disorder” in series [1] (individual 13, allergy to milk components, 0.25 g oral); “did not cause any gastrointestinal discomfort or any disorder” in series [1] (individuals 1 and 2 with lactose tolerance, 0.25 g, 0.5 g and 3 g oral); “did not cause any gastrointestinal discomfort or disorders” in series [1] (individuals 12 and 5 with lactose intolerance, 0.25 g oral). Besides, the “total xylose in urine 8 hours after intake, average value” at intestinal lactase (female volunteers with lactose tolerance, 0.25 g oral) was 23.5 ± 2.0 mg; on intestinal lactase (male volunteers with lactose tolerance, 0.25 g oral) it was 35.7 ± 2.0 mg. Moreover, on intestinal lactase (individual 5, 0.25 g oral, 8 hours), the “reduction of xylose in urine versus average of tolerant females” value is given as 83%. The “total xylose in urine 8 hours after intake” value on intestinal lactase (individual 5, person with lactose intolerance from birth, 0.25 g oral) worked out at 4.08 mg; at intestinal lactase (individual 12, hypolactasic person with lactose intolerance, 0.25 g oral), 1.33 mg. Moreover, on intestinal lactase (individual 12, 0.25 g oral, 8 hours), the “reduction of xylose in urine versus average of tolerant males” value came to 96%. Also, on intestinal lactase (individual 13, person with allergy to milk components, 0.25 g oral), the “total xylose excreted in urine after 8 hours” value is “the same total amount as the average of females with lactose tolerance”. Moreover, at intestinal lactase (individuals 1 and 2 with lactose tolerance, oral doses of 0.25 g, 0.5 g, 1 g and 3 g), the “dose dependence of excretion of xylose in urine” value is given as “increased with the amount”.
